For the experiment, the system named is HBV. Kind of experiment: HepAD38 antiviral assay: reduction of viral product accumulation (virion DNA by qPCR, HBsAg or HBeAg by ELISA). It is filed as cell-based, hepatitis B virus. To be noted: Hepatitis B virus, HePAD38, 120 h, read-out: HepAD38 EC50. On the procedure: Methods: HepAD38 cells are maintained as previously reported (Ladner et al, Antimicrob. Agents Chemother. 1997, […], 1715). Briefly, cells are passaged upon attaining confluency in DMEM/F12 media in the presence of 10% FBS, Penn/Strep, 250 μg/mL G418, and 1 ug/ml tetracycline. Novel compounds are screened by first washing cells three times with PBS to remove tetracycline, and plating in 96 well plates at 35,000 cells/well. Compounds dissolved in DMSO are then diluted 1:200 into wells containing cells. Five days after compound addition, material is harvested for analysis. For an extended 8 day analysis, cells are plated and treated as described above, but media and compound are refreshed on d2 and d5 post initial treatment.
On harvest day, virion DNA is obtained by lysing with Sidestep Lysis and Stabilization Buffer and then quantified via quantitative real time PCR. Commercially available ELISA kits are used to quantitate the viral proteins HBsAg (Alpco) or HbeAg (US Biological) by following the manufacturer's recommended protocol after diluting samples to match the linear range of their respective assays. Irrespective of readout, compound concentrations that reduce viral product accumulation in the cell lysates or supernatants by 50% relative to no drug controls (EC50) are reported; EC50 ranges are as follows: A<0.1 μM; B 0.1-0.4 μM; C>0.4 μM.

The mark [1] stands for this setting: HepAD38 cells, five days after compound addition, concentration reducing viral product accumulation by 50% relative to no drug controls.

Read-outs that look alike come from different tables or passages of the source.

One may read the EC50 as the midpoint of the concentration-response curve.

In the case of `CC(O)[C@]1(O)CC2CC[C@@H](C1)[C@H]2S(=O)(=O)c1cc(C(=O)Nc2cc(F)c(F)c(F)c2)ccc1Cl` (stereo partly shown) [Example 136], the EC50 under setting [1] is under 100 nM.
For the molecule `O=C(Nc1cc(F)c(F)c(F)c1)c1ccc(Cl)c(S(=O)(=O)[C@@H]2C3CC[C@H]2C[C@](O)(CO)C3)c1` [Example 137], the EC50 under setting [1] is 100 to 400 nM.
On the same count and under the same terms, under `O=C(Nc1cc(F)c(F)c(F)c1)c1ccc(Cl)c([S+]([O-])[C@H]2C3CC[C@H]2C[C@](O)(CO)C3)c1` (stereo partly shown) [Example 138] stands over 400 nM.
`O=C(Nc1cc(F)c(F)c(F)c1)c1ccc(Cl)c(S(=O)(=O)[C@H]2C3CC[C@H]2C[C@]2(CO2)C3)c1` [Example 139]: the EC50 under setting [1] is under 100 nM.
As for `CC(=O)OCC1=CC2CCC(C1)[C@@H]2S(=O)(=O)c1cc(C(=O)Nc2cc(F)c(F)c(F)c2)ccc1Cl` (stereo partly shown) [Example 140], under setting [1], the EC50 lay in the range of 100 to 400 nM.
`O=C(Nc1cc(F)c(F)c(F)c1)c1ccc(Cl)c(S(=O)(=O)[C@@H]2C3C=C(CO)CC2CC3)c1` (stereo partly shown) [Example 141]: the EC50 under setting [1] is 100 to 400 nM.
On the same count and under the same terms, with `CS(=O)(=O)OC[C@]1(O)CC2CC[C@@H](C1)[C@H]2S(=O)(=O)c1cc(C(=O)Nc2cc(F)c(F)c(F)c2)ccc1Cl` [Example 142] the figure was under 100 nM.
On the same count and under the same terms, with `CN(C)c1ccc(C(=O)Nc2cc(F)c(F)c(F)c2)cc1S(=O)(=O)[C@H]1C2CC[C@H]1C[C@]1(CO1)C2` [Example 143] the figure was over 400 nM; with `CN(C)c1ccc(C(=O)Nc2cc(F)c(F)c(F)c2)cc1S(=O)(=O)[C@H]1C2CC[C@H]1C[C@](O)(COS(C)(=O)=O)C2` [Example 144], over 400 nM.
The same measure, in the same setting: with `[N-]=[N+]=Nc1ccc(C(=O)Nc2cc(F)c(F)c(F)c2)cc1S(=O)(=O)[C@H]1C2CC[C@H]1C[C@]1(CO1)C2` [Example 145] the figure was 100 to 400 nM; with `O=C(Nc1cc(F)c(F)c(F)c1)c1ccc(Cl)c(S(=O)(=O)[C@H]2C3CC[C@H]2C(O)C(=O)C3)c1` (stereo partly shown) [Example 146], under 100 nM; with `CN(C)c1ccc(C(=O)Nc2cc(F)c(F)c(F)c2)cc1S(=O)(=O)[C@H]1C2CC[C@H]1C[C@](O)(CO)C2` [Example 147], over 400 nM.
`[N-]=[N+]=Nc1ccc(C(=O)Nc2cc(F)c(F)c(F)c2)cc1S(=O)(=O)[C@H]1C2CC[C@H]1C[C@](O)(CO)C2` [Example 148]: under setting [1], the EC50 is over 400 nM.
Consider `O=C(Nc1cc(F)c(F)c(F)c1)c1ccc(Cl)c(S(=O)(=O)[C@H]2C3CC[C@H]2C[C@](O)(C(O)c2ccccc2)C3)c1` (stereo partly shown) [Example 149], for which, under setting [1], the EC50 is under 100 nM.
The same measure, in the same setting: under `CC(C)(O)[C@]1(O)CC2CC[C@@H](C1)[C@H]2S(=O)(=O)c1cc(C(=O)Nc2cc(F)c(F)c(F)c2)ccc1Cl` [Example 151] stands under 100 nM; under `CO[C@]1(CO)CC2CC[C@@H](C1)[C@H]2S(=O)(=O)c1cc(C(=O)Nc2cc(F)c(F)c(F)c2)ccc1Cl` [Example 152], under 100 nM; under `COC(=O)[C@]1(O)CC2CC[C@@H](C1)[C@H]2S(=O)(=O)c1cc(C(=O)Nc2cc(F)c(F)c(F)c2)ccc1Cl` [Example 153], over 400 nM.
Consider `O=C1OC[C@@]2(CC3CC[C@@H](C2)[C@H]3S(=O)(=O)c2cc(C(=O)Nc3cc(F)c(F)c(F)c3)ccc2Cl)O1` [Example 155], for which the EC50 under setting [1] was under 100 nM.
`O=C(Nc1cc(F)c(F)c(F)c1)c1ccc(Cl)c(S(=O)(=O)[C@H]2C3CC[C@H]2C(O)[C@](O)(CO)C3)c1` (stereo partly shown) [Example 156]: the EC50 under setting [1] was under 100 nM.
The same measure, in the same setting: with `O=C(Nc1cc(F)c(F)c(F)c1)c1ccc(Cl)c(S(=O)(=O)[C@H]2C3CC[C@H]2C[C@](O)(/C=N/Oc2ccccc2)C3)c1` [Example 157] the figure was under 100 nM; with `O=C(Nc1cc(F)c(F)c(F)c1)c1ccc(Cl)c(S(=O)(=O)[C@H]2C3CC[C@H]2C[C@](O)(/C=N/O)C3)c1` [Example 158], under 100 nM.
For `[2H]C1([2H])C2C[C@@](O)(CO)C[C@H](C1([2H])[2H])[C@@]2([2H])S(=O)(=O)c1cc(C(=O)Nc2cc(F)c(F)c(F)c2)ccc1Cl` [Example 159], the concentration for a half-maximal effect (EC50) under setting [1] is under 100 nM.
Regarding `C[Si](C)(C)C#C[C@@]1(O)CC2CC[C@@H](C1)[C@H]2S(=O)(=O)c1cc(C(=O)Nc2cc(F)c(F)c(F)c2)ccc1Cl` [Example 160], the EC50 lay within 100 to 400 nM.
With `C#C[C@@]1(O)CC2CC[C@@H](C1)[C@H]2S(=O)(=O)c1cc(C(=O)Nc2cc(F)c(F)c(F)c2)ccc1Cl` [Example 161], the EC50 under setting [1] is under 100 nM.
The same measure, in the same setting: with `C#C[C@]1(O)CC2CC[C@@H](C1)[C@H]2S(=O)(=O)c1cc(C(=O)Nc2cc(F)c(F)c(F)c2)ccc1Cl` [Example 162] the figure was under 100 nM.
The same measure, in the same setting: under `O=C(Nc1cc(F)c(F)c(F)c1)c1ccc(Cl)c(S(=O)(=O)[C@H]2C3CC[C@H]2[C@@H](CO)C(=O)C3)c1` [Example 163] stands 100 to 400 nM; under `O=C(Nc1cc(F)c(F)c(F)c1)c1ccc(Cl)c(S(=O)(=O)[C@H]2C3CC[C@H]2C[C@@](O)(CO)C3)c1` [Example 164], under 100 nM.
Still for that read-out and setting: with `O=C(Nc1cc(F)c(F)c(F)c1)c1ccc(Cl)c(S(=O)(=O)CCCCO[C@H]2C3CC[C@H]2C[C@](O)(CO)C3)c1` [Example 165] the figure was over 400 nM; with `O=C(Nc1cc(F)c(F)c(F)c1)c1ccc(Cl)c(S(=O)(=O)C(CO)CC2CCOCC2)c1` (stereo not shown) [Example 166], 100 to 400 nM; with `O=C(Nc1cc(F)c(F)c(F)c1)c1ccc(Cl)c(S(=O)(=O)[C@H]2C3CC[C@H]2C[C@](O)(C#Cc2ccccc2)C3)c1` [Example 167], 100 to 400 nM.
As for `O=C(Nc1cc(F)c(F)c(F)c1)c1ccc(Cl)c(S(=O)(=O)[C@H]2C3CC[C@H]2C[C@@](O)(C#Cc2ccccc2)C3)c1` [Example 168], the EC50 under setting [1] was over 400 nM.
Consider `O=C(Nc1cc(F)c(F)c(F)c1)c1ccc(Cl)c(S(=O)(=O)[C@H]2C3CC[C@H]2C[C@](O)(C#Cc2ccncc2)C3)c1` [Example 169], for which the EC50 under setting [1] is under 100 nM.
The same measure, in the same setting: under `O=C(Nc1cc(F)c(F)c(F)c1)c1ccc(Cl)c(S(=O)(=O)[C@H]2C3CC[C@H]2C[C@@](O)(C#Cc2ccncc2)C3)c1` [Example 170] stands over 400 nM; under `O=C(Nc1cc(F)c(F)c(F)c1)c1ccc(Cl)c(S(=O)(=O)[C@H]2C3CC[C@H]2C[C@](O)(C#Cc2ccccn2)C3)c1` [Example 171], under 100 nM.
As to `O=C(Nc1cc(F)c(F)c(F)c1)c1ccc(Cl)c(S(=O)(=O)[C@H]2C3CC[C@H]2C[C@@](O)(C#Cc2ccccn2)C3)c1` [Example 172], under setting [1], the EC50 was 100 to 400 nM.
On the same count and under the same terms, with `C=CC[C@]1(O)CC2CCC(C1)[C@@H]2S(=O)(=O)c1cc(C(=O)Nc2cc(F)c(F)c(F)c2)ccc1Cl` [Example 173] the figure was under 100 nM; with `O=C(Nc1cc(F)c(F)c(F)c1)c1ccc(Cl)c(S[C@H]2C3CC4C[C@H](C3)C[C@@H]2C4)c1` [Example 174], over 400 nM; with `O=C(Nc1cc(F)c(F)c(F)c1)c1ccc(Cl)c([S+]([O-])[C@H]2C3C[C@@H]4C[C@H](C3)C[C@@H]2C4)c1` (stereo partly shown) [Example 175], over 400 nM.
In the case of `O=C(Nc1cc(F)c(F)c(F)c1)c1ccc(Cl)c(S(=O)(=O)[C@H]2C3C[C@@H]4C[C@H](C3)C[C@@H]2C4)c1` [Example 176], the EC50 under setting [1] was over 400 nM.
With `O=C(Nc1cc(F)c(F)c(F)c1)c1ccc(Cl)c(S(=O)(=O)C[C@H]2C3CC[C@H]2C[C@](O)(CO)C3)c1` [Example 177], the EC50 under setting [1] was under 100 nM.
As to `O=C(Nc1cc(F)c(F)c(F)c1)c1ccc(Cl)c(S(=O)(=O)C[C@@H]2C3CC[C@H]2C[C@](O)(CO)C3)c1` [Example 178], the EC50 under setting [1] is under 100 nM.
Consider `O=C1CC2CC[C@@H](C1)[C@@H]2CS(=O)(=O)c1cc(C(=O)Nc2cc(F)c(F)c(F)c2)ccc1Cl` [Example 179], for which, under setting [1], the concentration for a half-maximal effect (EC50) was under 100 nM.
Consider `O=C1CC2CC[C@@H](C1)[C@H]2CS(=O)(=O)c1cc(C(=O)Nc2cc(F)c(F)c(F)c2)ccc1Cl` [Example 180], for which the EC50 under setting [1] is under 100 nM.
For the molecule `O=C(Nc1cc(F)c(F)c(F)c1)c1ccc(Cl)c(S(=O)(=O)C[C@@H]2C3CC[C@H]2C[C@@H](O)C3)c1` [Example 181], under setting [1], the EC50 is under 100 nM.
Same read-out and setting: with `O=C(Nc1cc(F)c(F)c(F)c1)c1ccc(Cl)c(S(=O)(=O)[C@H]2CC3CCC(C2)[C@H]3O)c1` [Example 183] the figure was 100 to 400 nM; with `O=C(Nc1cc(F)c(F)c(F)c1)c1ccc(Cl)c(S(=O)(=O)[C@H]2CC3CCC(C2)[C@H]3OC2CCCO2)c1` (stereo partly shown) [Example 184], over 400 nM.
Same read-out and setting: under `CC(=O)OC[C@]1(OC(C)=O)CC2CC[C@@H](C1)[C@H]2S(=O)(=O)c1cc(C(=O)Nc2cc(F)c(F)c(F)c2)ccc1Cl` [Example 185] stands under 100 nM; under `CS(=O)(=O)NC[C@@]1(O)CC2CC[C@@H](C1)[C@H]2S(=O)(=O)c1cc(C(=O)Nc2cc(F)c(F)c(F)c2)ccc1Cl` [Example 186], 100 to 400 nM.
The same measure, in the same setting: under `O=C(Nc1cc(F)c(F)c(F)c1)c1ccc(Cl)c(S(=O)(=O)[C@H]2C3CC[C@H]2C[C@](O)(COCc2cccnc2)C3)c1` [Example 187] stands under 100 nM.
For the molecule `CC(C)(C)[Si](C)(C)O[C@H]1C2CCC1C[C@@H](Sc1cc(C(=O)Nc3cc(F)c(F)c(F)c3)ccc1Cl)C2` [Example 189], the EC50 is 100 to 400 nM.
With `O=C(Nc1cc(F)c(F)c(F)c1)c1ccc(Cl)c(S[C@H]2CC3CCC(C2)[C@@H]3O)c1` [Example 190], under setting [1], the EC50 is over 400 nM.
In the case of `O=C(Nc1cc(F)c(F)c(F)c1)c1ccc(Cl)c(S[C@H]2CC3CCC(C2)[C@H]3O)c1` [Example 191], the EC50 under setting [1] is over 400 nM.

For the origin of these results see patent US10538532B2, “Hepatitis B antiviral agents” (ENANTA PHARMACEUTICALS, INC., priority 2016, dated 2020).
